Experiments:
Format in all cases: in vivo
[1] = system: barnyardgrass (Echinochloa crus-galli); experiment: Test B flooded paddy test; details: Flood, 500 g ai/ha; 0 to 100 scale where 0 is no effect and 100 is complete control; 13 to 15 d
Method in brief: (§1)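 Greenhouse paddy pots with 2-leaf stage plants received compound by direct addition to floodwater 3 cm deep, kept at that level. Scored visually at 13–15 d versus controls (0 no effect; 100 complete control).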

[2] = system: sedge, umbrella (small-flower umbrella sedge, Cyperus difformis); experiment: Test B flooded paddy test; details: Flood, 500 g ai/ha; 0 to 100 scale where 0 is no effect and 100 is complete control; 13 to 15 d
Method in brief: as §1

rice (Oryra sativa) = experiment: Test B flooded paddy test; details: Flood, 500 g ai/ha; 0 to 100 scale where 0 is no effect and 100 is complete control; 13 to 15 d
Method in brief: as §1

[3] = system: ducksalad (Heteranthera limosa); experiment: Test B flooded paddy test; details: Flood, 500 g ai/ha; 0 to 100 scale where 0 is no effect and 100 is complete control; 13 to 15 d
Method in brief: as §1

[4] = system: barnyardgrass (Echinochloa crus-galli); experiment: Test A preemergence
Method in brief: (§2)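 In a loam soil and sand blend, planted seeds got a preemergence directed soil spray, and young plants at the one- to two-leaf stage, 2–10 cm high, got a postemergence application; ~10 d greenhouse hold; injury rated visually, 0 = none, 100 = complete control.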

[5] = system: ryegrass, Italian (Italian ryegrass, Lolium multiflorum); experiment: Test A preemergence
Method in brief: as §2

Kochia (Kochia scoparia) [6] = experiment: Test A preemergence
Method in brief: as §2

[7] = system: giant foxtail (Setaria faberii); experiment: Test A preemergence
Method in brief: as §2

[8] = system: pigweed (Amaranthus retroflexus); experiment: Test A preemergence
[9] = system: ragweed (common ragweed, Ambrosia elatior); experiment: Test A preemergence
Method in brief: as §2

[10] = system: blackgrass (Alopecurus myosuroides); experiment: Test A postemergence; details: postemergence, 0 to 100 scale (0 no effect, 100 complete control)
Method in brief: as §2

[11] = system: barnyardgrass (Echinochloa crus-galli); experiment: Test A postemergence; details: postemergence, 0 to 100 scale (0 no effect, 100 complete control)
Method in brief: as §2

[12] = system: ryegrass, Italian (Italian ryegrass, Lolium multiflorum); experiment: Test A postemergence; details: postemergence, 0 to 100 scale (0 no effect, 100 complete control)
Method in brief: as §2

corn (Zea mays) = experiment: Test A postemergence; details: postemergence, 0 to 100 scale (0 no effect, 100 complete control)
Method in brief: as §2

Kochia (Kochia scoparia) [13] = experiment: Test A postemergence; details: postemergence, 0 to 100 scale (0 no effect, 100 complete control)
Method in brief: as §2

[14] = system: giant foxtail (Setaria faberii); experiment: Test A postemergence; details: postemergence, 0 to 100 scale (0 no effect, 100 complete control)
Method in brief: as §2

[15] = system: Galium (catchweed bedstraw, Galium aparine); experiment: Test A postemergence; details: postemergence, 0 to 100 scale (0 no effect, 100 complete control)
Method in brief: as §2

[16] = system: pigweed (Amaranthus retroflexus); experiment: Test A postemergence; details: postemergence, 0 to 100 scale (0 no effect, 100 complete control)
Method in brief: as §2

[17] = system: ragweed (common ragweed, Ambrosia elatior); experiment: Test A postemergence; details: postemergence, 0 to 100 scale (0 no effect, 100 complete control)
Method in brief: as §2

[18] = system: wheat (Triticum aestivum); experiment: Test A postemergence; details: postemergence, 0 to 100 scale (0 no effect, 100 complete control)
Method in brief: as §2

[19] = 125 g ai/ha, Preemergence, visual injury after approximately 10 d, 0 to 100 scale where 0 is no effect and 100 is complete control
[20] = 500 g ai/ha, preemergence, 0 to 100 scale, 0 = no effect, 100 = complete control
[21] = 125 g ai/ha, visual rating after approx. 10 d
[22] = 500 g ai/ha, visual injury, approx. 10 d

O=C1NCC(c2cccc(C(F)(F)F)c2)C1C(=O)Nc1ccc(Cl)cc1F (racemic) [Compound 675]
20: Plant response rating, Ryegrass, Italian [5, 20] | Plant response rating, Blackgrass [10, 22]
80: Plant response rating, Barnyardgrass [4, 20] | Plant response rating, Foxtail, Giant [14, 22]
60: Plant response rating, Barnyardgrass [1]
50: Plant response rating, Foxtail, Giant [14, 21]
40: Plant response rating, Barnyardgrass [11, 21]
0: Plant response rating, Sedge, Umbrella [2] | Plant response rating, Ryegrass, Italian [5, 19] | Plant response rating, Kochia (Kochia (Kochia scoparia) [6]; [19]) | Plant response rating, Kochia (Kochia (Kochia scoparia) [6]; [20]) | Plant response rating, Pigweed [8, 19] | Plant response rating, Pigweed [8, 20] | Plant response rating, Ragweed [9, 19] | Plant response rating, Ragweed [9, 20] | Plant response rating, Blackgrass [10, 21] | Plant response rating, Ryegrass, Italian [12, 21] | Plant response rating, Ryegrass, Italian [12, 22] | Plant response rating, Corn (corn (Zea mays); [21]) | Plant response rating, Corn (corn (Zea mays); [22]) | Plant response rating, Kochia (Kochia (Kochia scoparia) [13]; [21]) | Plant response rating, Kochia (Kochia (Kochia scoparia) [13]; [22]) | Plant response rating, Galium [15, 21] | Plant response rating, Galium [15, 22] | Plant response rating, Pigweed [16, 21] | Plant response rating, Pigweed [16, 22] | Plant response rating, Ragweed [17, 21] | Plant response rating, Ragweed [17, 22] | Plant response rating, Wheat [18, 21] | Plant response rating, Wheat [18, 22]
90: Plant response rating, Foxtail, Giant [7, 20]
70: Plant response rating, Barnyardgrass [4, 19] | Plant response rating, Foxtail, Giant [7, 19] | Plant response rating, Barnyardgrass [11, 22]
15: Plant response rating, Rice (rice (Oryra sativa))
75: Plant response rating, Ducksalad [3]

— patent publication US12077503B2, “Substituted cyclic amides and their use as herbicides” (FMC CORPORATION, priority 2015, dated 2024)
